Data reported in US20120225062A1 (priority 2011, published 2012).

Tests used:
[1] = biological target: Pim 1 (Homo sapiens, UniProt P11309); test: Pim 1 AlphaScreen assay (high ATP)
[2] = biological target: Pim 2 (Homo sapiens, UniProt Q9P1W9); test: Pim 2 AlphaScreen assay (high ATP)
[3] = test system: KMS11 (human myeloma cell line); test: Cell Proliferation Assay (CellTiter-Glo, 3 days); type: cell-based; conditions: KMS-11, 72 h, KMS11-luc cells
How it was run: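 EC50 from CellTiter-Glo luminescence after 3-day, 37° C compound treatment of KMS11 cells seeded at 2000 per well in IMDM plus 10% FBS.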

[4] = biological target: Pim 3 (Homo sapiens, UniProt Q86V86); test: Pim 3 AlphaScreen assay (high ATP)

Pim 1, sequence (P11309 whole entry): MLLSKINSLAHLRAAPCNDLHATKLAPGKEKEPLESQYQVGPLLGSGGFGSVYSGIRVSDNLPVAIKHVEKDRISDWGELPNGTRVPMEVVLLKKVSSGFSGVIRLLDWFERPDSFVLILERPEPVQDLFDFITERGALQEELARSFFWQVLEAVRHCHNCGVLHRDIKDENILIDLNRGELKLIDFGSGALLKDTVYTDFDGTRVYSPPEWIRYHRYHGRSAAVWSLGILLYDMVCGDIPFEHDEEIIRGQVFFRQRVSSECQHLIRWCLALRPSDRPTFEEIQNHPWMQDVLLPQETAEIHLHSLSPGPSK
Pim 2, sequence (Q9P1W9 whole entry): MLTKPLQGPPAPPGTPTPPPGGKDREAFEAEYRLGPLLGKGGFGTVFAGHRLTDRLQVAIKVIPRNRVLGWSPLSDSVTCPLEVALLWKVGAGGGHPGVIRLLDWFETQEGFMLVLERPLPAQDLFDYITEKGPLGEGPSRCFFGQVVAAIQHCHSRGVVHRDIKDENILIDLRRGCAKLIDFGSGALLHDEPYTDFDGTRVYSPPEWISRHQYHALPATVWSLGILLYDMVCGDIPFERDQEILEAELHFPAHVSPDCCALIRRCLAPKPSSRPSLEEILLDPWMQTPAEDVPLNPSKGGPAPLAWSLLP

IC50 [1] | IC50 [2] | EC50 [3] | IC50 [4] | SMILES
0.02 nM | 2.77 nM | 146 nM | 1.03 nM | CC(C)OCc1cc(F)c(-c2nc(C(=O)Nc3cnccc3[C@@H]3C[C@H](C)C[C@H](N)C3)ccc2F)c(F)c1 [Example 147, N-(4-((1R,3S,5S)-3-amino-5-methylcyclohexyl)pyridin-3-yl)-6-(2,6-difluoro-4-(isopropoxymethyl)phenyl)-5-fluoropicolinamide]
0.02 nM | 1.24 nM | 30 nM | 0.61 nM | C[C@@H]1C[C@H](N)C[C@H](c2ccncc2NC(=O)c2nc(-c3c(F)cc(C4COC4)cc3F)c(F)cc2N)C1 [Example 241, 3-amino-N-(4-((1R,3S,5S)-3-amino-5-methylcyclohexyl)pyridin-3-yl)-6-(2,6-difluoro-4-(oxetan-3-yl)phenyl)-5-fluoropicolinamide]
0.08 nM | 5.59 nM | 225 nM | 4.8 nM | C[C@H]1C[C@@H](c2ccncc2NC(=O)c2ccc(F)c(-c3c(F)cc(C4(F)COC4)cc3F)n2)C[C@@H](N)[C@@H]1O [Example 136, N-(4-((1R,3R,4R,5S)-3-amino-4-hydroxy-5-methylcyclohexyl)pyridin-3-yl)-6-(2,6-difluoro-4-(3-fluorooxetan-3-yl)phenyl)-5-fluoropicolinamide]
0.03 nM | 4.96 nM | 126 nM | 0.95 nM | C[C@@H]1C[C@H](N)C[C@H](c2ccncc2NC(=O)c2ccc(F)c(-c3c(F)ccc(OC[C@@H](O)CO)c3F)n2)C1 [Example 10, N-(4-((1R,3S,5S)-3-amino-5-methylcyclohexyl)pyridin-3-yl)-6-(3-((S)-2,3-dihydroxypropoxy)-2,6-difluorophenyl)-5-fluoropicolinamide]
0.08 nM | 2.07 nM | 37 nM | 2.66 nM | C[C@H]1CN(c2ccncc2NC(=O)c2ccc(F)c(-c3c(F)cc(S(C)(=O)=O)cc3F)n2)C[C@@H](N)[C@@H]1O [Example 16, N-(4-((3R,4R,5S)-3-amino-4-hydroxy-5-methylpiperidin-1-yl)pyridin-3-yl)-6-(2,6-difluoro-4-(methylsulfonyl)phenyl)-5-fluoropicolinamide]
0.01 nM | 3.84 nM | 83 nM | 1.01 nM | C[C@@H]1C[C@H](N)C[C@H](c2ccncc2NC(=O)c2ccc(F)c(-c3c(F)cc(OC(F)F)cc3F)n2)C1 [Example 65, N-(4-((1R,3S,5S)-3-amino-5-methylcyclohexyl)pyridin-3-yl)-6-(4-(difluoromethoxy)-2,6-difluorophenyl)-5-fluoropicolinamide]
0.02 nM | 1.18 nM | 1490 nM | 0.59 nM | C[C@H]1C[C@@H](c2ccncc2NC(=O)c2ccc(F)c(-c3c(F)cc(C4CCS(=O)(=O)CC4)cc3F)n2)C[C@@H](N)[C@@H]1O [Example 203, N-(4-((1R,3R,4R,5S)-3-amino-4-hydroxy-5-methylcyclohexyl)pyridin-3-yl)-6-(4-(1,1-dioxidotetrahydro-2H-thiopyran-4-yl)-2,6-difluorophenyl)-5-fluoropicolinamide]
0.03 nM | 1.89 nM | 53 nM | 0.55 nM | C[C@@H]1C[C@H](N)C[C@H](c2ccncc2NC(=O)c2ccc(F)c(-c3c(F)cc(OC[C@@H](O)CO)cc3F)n2)C1 [Example 3, N-(4-((1R,3S,5S)-3-amino-5-methylcyclohexyl)pyridin-3-yl)-6-(4-((S)-2,3-dihydroxypropoxy)-2,6-difluorophenyl)-5-fluoropicolinamide]
0.02 nM | 1.18 nM | 17 nM | 0.69 nM | COC1(c2cc(F)c(-c3nc(C(=O)Nc4cnccc4N4C[C@@H](N)[C@H](O)[C@@H](C)C4)ccc3F)c(F)c2)COC1 [Example 88, N-(4-((3R,4R,5S)-3-amino-4-hydroxy-5-methylpiperidin-1-yl)pyridin-3-yl)-6-(2,6-difluoro-4-(3-methoxyoxetan-3-yl)phenyl)-5-fluoropicolinamide]
0.1 nM | 32 nM | 492 nM | 5.22 nM | N[C@H]1CCC[C@@H](c2ccncc2NC(=O)c2ccc(F)c(-c3c(F)cc(COC4CCOCC4)cc3F)n2)C1 [Example 154, N-(4-((1R,3S)-3-aminocyclohexyl)pyridin-3-yl)-6-(2,6-difluoro-4-((tetrahydro-2H-pyran-4-yloxy)methyl)phenyl)-5-fluoropicolinamide]
0.05 nM | 3.26 nM | 402 nM | 2.9 nM | C[C@@H]1C[C@H](N)C[C@H](c2ccncc2NC(=O)c2cccc(-c3c(F)cc(C4(F)CCOCC4)cc3F)n2)C1 [Example 190, N-(4-((1R,3S,5S)-3-amino-5-methylcyclohexyl)pyridin-3-yl)-6-(2,6-difluoro-4-(4-fluorotetrahydro-2H-pyran-4-yl)phenyl)picolinamide]
0.01 nM | 0.63 nM | 153 nM | 0.36 nM | CC(C)[C@@H]1C[C@H](N)C[C@H](c2ccncc2NC(=O)c2ccc(F)c(-c3c(F)cc(C4CCOCC4)cc3F)n2)C1 [Example 139, N-(4-((1R,3S,5S)-3-amino-5-isopropylcyclohexyl)pyridin-3-yl)-6-(2,6-difluoro-4-(tetrahydro-2H-pyran-4-yl)phenyl)-5-fluoropicolinamide]
0.03 nM | 4.34 nM | 30 nM | 1.02 nM | C[C@H]1C[C@@H](c2ccncc2NC(=O)c2ccc(F)c(-c3c(F)cc(OCC(C)(C)O)cc3F)n2)C[C@@H](N)[C@@H]1O [Example 51, N-(4-((1R,3R,4R,5S)-3-amino-4-hydroxy-5-methylcyclohexyl)pyridin-3-yl)-6-(2,6-difluoro-4-(2-hydroxy-2-methylpropoxy)phenyl)-5-fluoropicolinamide]
0.02 nM | 1.55 nM | 69 nM | 0.37 nM | CC(C)Oc1cc(F)c(-c2nc(C(=O)Nc3cnccc3[C@H]3C[C@@H](N)[C@H](O)[C@@H](C)C3)c(N)cc2F)c(F)c1 [Example 97]
0.05 nM | 4.79 nM | 55 nM | 2.86 nM | COC1(c2cc(F)c(-c3nc(C(=O)Nc4cnccc4[C@H]4C[C@@H](N)[C@H](O)[C@@H](C)C4)ccc3F)c(F)c2)COC1 [Example 52, N-(4-((1R,3R,4R,5S)-3-amino-4-hydroxy-5-methylcyclohexyl)pyridin-3-yl)-6-(2,6-difluoro-4-(3-methoxyoxetan-3-yl)phenyl)-5-fluoropicolinamide]
0.02 nM | 0.68 nM | 21 nM | 0.37 nM | C[C@H]1CN(c2ccncc2NC(=O)c2ccc(F)c(-c3c(F)cc(C4(O)CC4)cc3F)n2)C[C@@H](N)[C@@H]1O [Example 103, N-(4-((3R,4R,5S)-3-amino-4-hydroxy-5-methylpiperidin-1-yl)pyridin-3-yl)-6-(2,6-difluoro-4-(1-hydroxycyclopropyl)phenyl)-5-fluoropicolinamide]
0.02 nM | 1.03 nM | 157 nM | 0.31 nM | C[C@H]1CN(c2ccncc2NC(=O)c2nc(-c3c(F)cc(C4COC4)cc3F)c(F)cc2N)C[C@@H](N)[C@@H]1O [Example 107, 3-amino-N-(4-((3R,4R,5S)-3-amino-4-hydroxy-5-methylpiperidin-1-yl)pyridin-3-yl)-6-(2,6-difluoro-4-(oxetan-3-yl)phenyl)-5-fluoropicolinamide]
0.02 nM | 1.23 nM | 22 nM | 0.56 nM | C[C@H]1C[C@@H](c2ccncc2NC(=O)c2ccc(F)c(-c3c(F)cc(O[C@@H]4CCCOC4)cc3F)n2)C[C@@H](N)[C@@H]1O [Example 78, N-(4-((1R,3R,4R,5S)-3-amino-4-hydroxy-5-methylcyclohexyl)pyridin-3-yl)-6-(2,6-difluoro-4-((R)-tetrahydro-2H-pyran-3-yloxy)phenyl)-5-fluoropicolinamide]
0.03 nM | 2.47 nM | 210 nM | 1.28 nM | C[C@@H]1C[C@H](N)C[C@H](c2ccncc2NC(=O)c2cccc(-c3c(F)cc(OC4CCOCC4)cc3F)n2)C1 [Example 187, N-(4-((1R,3S,5S)-3-amino-5-methylcyclohexyl)pyridin-3-yl)-6-(2,6-difluoro-4-(tetrahydro-2H-pyran-4-yloxy)phenyl)picolinamide]
0.01 nM | 0.42 nM | 14 nM | 0.21 nM | CCOCc1cc(F)c(-c2nc(C(=O)Nc3cnccc3[C@@H]3C[C@H](C)C[C@H](N)C3)ccc2F)c(F)c1 [Example 81, N-(4-((1R,3S,5S)-3-amino-5-methylcyclohexyl)pyridin-3-yl)-6-(4-(ethoxymethyl)-2,6-difluorophenyl)-5-fluoropicolinamide]
0.03 nM | 2.96 nM | 148 nM | 1.72 nM | C[C@@H]1C[C@H](N)C[C@H](c2ccncc2NC(=O)c2ccc(F)c(-c3c(F)cc(COC4CCOCC4)cc3F)n2)C1 [Example 149, N-(4-((1R,3S,5S)-3-amino-5-methylcyclohexyl)pyridin-3-yl)-6-(2,6-difluoro-4-((tetrahydro-2H-pyran-4-yloxy)methyl)phenyl)-5-fluoropicolinamide]
0.05 nM | 2.56 nM | 619 nM | 1.43 nM | C[C@H]1C[C@@H](c2ccncc2NC(=O)c2ccc(F)c(-c3c(F)cc(OCC(F)(F)F)cc3F)n2)C[C@@H](N)[C@@H]1O [Example 197, N-(4-((1R,3R,4R,5S)-3-amino-4-hydroxy-5-methylcyclohexyl)pyridin-3-yl)-6-(2,6-difluoro-4-(2,2,2-trifluoroethoxy)phenyl)-5-fluoropicolinamide]
